Test results: patent US20250147039A1, “Compounds for complexation of rare earth elements and/or s-, p-, d- block metals, their coordination compounds, peptide conjugates, method of their preparation and use thereof” (USTAV ORGANICKE CHEMIE A BIOCHEMIE AV CR V.V.I., priority 2021, published 2025)

Columns and labels:
[1] = Formation of 1,5-cz-[Ln(Lig)] from Lig and Ln^III ions (metal dependent click-zip), MOPS/NaOH buffer pH 7.0, analytical HPLC (Charts 1, 2)
[2] = Formation of 1,5-cz-[M(Lig)] from Lig and M^III ions (metal dependent click-zip) (Charts 4, 5); type: physicochemical; details: for conversion to 1,5-cz-[M(Lig)], Bi^III: 4% DMSO in MOPS/NaOH buffer pH 7.0, TD728 in 50% i-PrOH; for conversion to 1,5-cz-[M(Lig)], Ir^III / conversion to 1,5-cz-[M(Lig)], Ru^III: 50% i-PrOH in MOPS/NaOH buffer pH 7.0; for conversion to 1,5-cz-[M(Lig)], Sc^III / conversion to 1,5-cz-[M(Lig)], Y^III: MOPS/NaOH buffer pH 7.0, TD728, TD827 in 50% i-PrOH; for conversion to 1,5-cz-[M(Lig)], Y^III: TD714 sum of two diastereoisomers
[3] = Formation of 1,5-cz-[M(Lig)] from Lig and M^II ions (metal dependent click-zip) (Charts 6, 7); type: physicochemical; details: for conversion to 1,5-cz-[M(Lig)], Pt^II: 50% i-PrOH in MOPS/NaOH buffer pH 7.0; for conversion to 1,5-cz-[M(Lig)], Ca^II / conversion to 1,5-cz-[M(Lig)], Cd^II / conversion to 1,5-cz-[M(Lig)], Mn^II / conversion to 1,5-cz-[M(Lig)], Pb^II / conversion to 1,5-cz-[M(Lig)], Pd^II: MOPS/NaOH buffer pH 7.0, TD728 in 50% i-PrOH
[4] = after 1 week at 80° C., 50% i-PrOH in aq. MOPS/NaOH Buffer pH 7.0
[5] = after 1 hour at 80° C., 50% i-PrOH in aq. MOPS/NaOH Buffer pH 7.0
[6] = 1 hour at 80° C., TD714 sum of two diastereoisomers
[7] = after 1 week at 80° C., MOPS/NaOH buffer pH 7.0

## CC(C)[Si](C#Cc1cccc(CN2CCN(CC(=O)O)CCN(Cc3cccc(CN=[N+]=[N-])n3)CCN(CC(=O)O)CC2)n1)(C(C)C)C(C)C [TD728]
[1]; [4]
  conversion to 1,5-cz-[Ln(Lig)], Ce^III: 5%
  conversion to 1,5-cz-[Ln(Lig)], Dy^III: 54%
  conversion to 1,5-cz-[Ln(Lig)], Er^III: 72%
  conversion to 1,5-cz-[Ln(Lig)], Eu^III: 35%
  conversion to 1,5-cz-[Ln(Lig)], Gd^III: 32%
  conversion to 1,5-cz-[Ln(Lig)], Ho^III: 60%
  conversion to 1,5-cz-[Ln(Lig)], La^III: 13%
  conversion to 1,5-cz-[Ln(Lig)], Lu^III: 88%
  conversion to 1,5-cz-[Ln(Lig)], Nd^III: 24%
  conversion to 1,5-cz-[Ln(Lig)], Pr^III: 23%
  conversion to 1,5-cz-[Ln(Lig)], Sm^III: 34%
  conversion to 1,5-cz-[Ln(Lig)], Tb^III: 49%
  conversion to 1,5-cz-[Ln(Lig)], Tm^III: 84%
  conversion to 1,5-cz-[Ln(Lig)], Yb^III: 88%
[1]; [5]
  conversion to 1,5-cz-[Ln(Lig)], Ce^III: 0%
  conversion to 1,5-cz-[Ln(Lig)], Dy^III: 1%
  conversion to 1,5-cz-[Ln(Lig)], Er^III: 1%
  conversion to 1,5-cz-[Ln(Lig)], Eu^III: 0%
  conversion to 1,5-cz-[Ln(Lig)], Gd^III: 0%
  conversion to 1,5-cz-[Ln(Lig)], Ho^III: 1%
  conversion to 1,5-cz-[Ln(Lig)], La^III: 0%
  conversion to 1,5-cz-[Ln(Lig)], Lu^III: 2%
  conversion to 1,5-cz-[Ln(Lig)], Nd^III: 0%
  conversion to 1,5-cz-[Ln(Lig)], Pr^III: 0%
  conversion to 1,5-cz-[Ln(Lig)], Sm^III: 0%
  conversion to 1,5-cz-[Ln(Lig)], Tb^III: 0%
  conversion to 1,5-cz-[Ln(Lig)], Tm^III: 1%
  conversion to 1,5-cz-[Ln(Lig)], Yb^III: 2%
[2]; 1 week at 80° C.
  conversion to 1,5-cz-[M(Lig)], Bi^III: 29%
  conversion to 1,5-cz-[M(Lig)], Ir^III: 0%
  conversion to 1,5-cz-[M(Lig)], Ru^III: 0%
  conversion to 1,5-cz-[M(Lig)], Sc^III: 2%
  conversion to 1,5-cz-[M(Lig)], Y^III: 50%
[2]; 1 hour at 80° C.
  conversion to 1,5-cz-[M(Lig)], Bi^III: 5%
  conversion to 1,5-cz-[M(Lig)], Ir^III: 0%
  conversion to 1,5-cz-[M(Lig)], Ru^III: 0%
  conversion to 1,5-cz-[M(Lig)], Sc^III: 0%
  conversion to 1,5-cz-[M(Lig)], Y^III: 1%
[3]; 1 week at 80° C.
  conversion to 1,5-cz-[M(Lig)], Pt^II: 0%
  conversion to 1,5-cz-[M(Lig)], Ca^II: 37%
  conversion to 1,5-cz-[M(Lig)], Cd^II: 36%
  conversion to 1,5-cz-[M(Lig)], Mn^II: 1%
  conversion to 1,5-cz-[M(Lig)], Pb^II: 14%
  conversion to 1,5-cz-[M(Lig)], Pd^II: 1%
[3]; 1 hour at 80° C.
  conversion to 1,5-cz-[M(Lig)], Pt^II: 0%
  conversion to 1,5-cz-[M(Lig)], Ca^II: 0%
  conversion to 1,5-cz-[M(Lig)], Mn^II: 0%
  conversion to 1,5-cz-[M(Lig)], Pb^II: 0%
  conversion to 1,5-cz-[M(Lig)], Pd^II: 1%
[3]; [6]
  conversion to 1,5-cz-[M(Lig)], Cd^II: 1%

## C#Cc1cccc(CN2CCN(CC(=O)O)CCN(Cc3cc(Cl)cc(CN=[N+]=[N-])n3)CCN(CC(=O)O)CC2)n1 [TD764]
[1]; [7]
  conversion to 1,5-cz-[Ln(Lig)], Ce^III: 20%
  conversion to 1,5-cz-[Ln(Lig)], Dy^III: 93%
  conversion to 1,5-cz-[Ln(Lig)], Er^III: 95%
  conversion to 1,5-cz-[Ln(Lig)], Eu^III: 79%
  conversion to 1,5-cz-[Ln(Lig)], Gd^III: 86%
  conversion to 1,5-cz-[Ln(Lig)], Ho^III: 94%
  conversion to 1,5-cz-[Ln(Lig)], La^III: 25%
  conversion to 1,5-cz-[Ln(Lig)], Lu^III: 96%
  conversion to 1,5-cz-[Ln(Lig)], Nd^III: 50%
  conversion to 1,5-cz-[Ln(Lig)], Pr^III: 35%
  conversion to 1,5-cz-[Ln(Lig)], Sm^III: 73%
  conversion to 1,5-cz-[Ln(Lig)], Tb^III: 91%
  conversion to 1,5-cz-[Ln(Lig)], Tm^III: 96%
  conversion to 1,5-cz-[Ln(Lig)], Yb^III: 96%
[2]; 1 week at 80° C.
  conversion to 1,5-cz-[M(Lig)], Bi^III: 85%
  conversion to 1,5-cz-[M(Lig)], Sc^III: 5%
  conversion to 1,5-cz-[M(Lig)], Y^III: 95%
[2]; 1 hour at 80° C.
  conversion to 1,5-cz-[M(Lig)], Bi^III: 31%
[3]; 1 week at 80° C.
  conversion to 1,5-cz-[M(Lig)], Ca^II: 95%
  conversion to 1,5-cz-[M(Lig)], Cd^II: 96%
  conversion to 1,5-cz-[M(Lig)], Mn^II: 35%
  conversion to 1,5-cz-[M(Lig)], Pb^II: 37%
  conversion to 1,5-cz-[M(Lig)], Pd^II: 9%
[3]; 1 hour at 80° C.
  conversion to 1,5-cz-[M(Lig)], Ca^II: 16%
  conversion to 1,5-cz-[M(Lig)], Mn^II: 1%
  conversion to 1,5-cz-[M(Lig)], Pb^II: 1%
  conversion to 1,5-cz-[M(Lig)], Pd^II: 10%
[3]; [6]
  conversion to 1,5-cz-[M(Lig)], Cd^II: 53%
